Experimental data published in ChEMBL document CHEMBL4411276, “Chemistry-oriented synthesis (ChOS) and target deconvolution on neuroprotective effect of a novel scaffold, oxaza spiroquinone” (Eur J Med Chem, 2019).

Legend:
BV-2 = test: Anti-inflammatory activity in mouse BV2 cells assessed as reduction in LPS-induced NO production pre-treated before LPS stimulation for 24 hrs by Griess reagent-based assay; type: functional, cell-based
[1] = Cytotoxicity against LPS-stimulated mouse BV2 cells assessed as cell survival after 24 hrs by MTT assay relative to control; type: cell-based, BV-2; set-up: concentration or dose not given beside the values; details: read-out: Survival
[2] = biological target: Death-associated protein kinase 1 (Homo sapiens) (UniProt P53355); test: Inhibition of human DAPK1 assessed as enzyme activity at 30 uM using KKLNRTLSFAEPG as substrate by [gamma-33P]-ATP assay relative to control; set-up: scale not given: the % may be the effect or the level left
[3] = biological target: Cyclin-dependent kinase 1/cyclin B1 (Homo sapiens) (UniProt P06493+P14635); test: Inhibition of human CDK1/cyclinB assessed as enzyme activity at 30 uM using Histone H1 as substrate by [gamma-33P]-ATP assay relative to control; type: protein-complex assay; set-up: scale not given: the % may be the effect or the level left
[4] = biological target: T1, Serine/threonine-protein kinase tousled-like 1 (Homo sapiens) (UniProt Q9UKI8); test: Inhibition of human TLK1 assessed as enzyme activity at 30 uM using Histone H3 as substrate by [gamma-33P]-ATP assay relative to control; set-up: scale not given: the % may be the effect or the level left
T1 sequence (whole entry): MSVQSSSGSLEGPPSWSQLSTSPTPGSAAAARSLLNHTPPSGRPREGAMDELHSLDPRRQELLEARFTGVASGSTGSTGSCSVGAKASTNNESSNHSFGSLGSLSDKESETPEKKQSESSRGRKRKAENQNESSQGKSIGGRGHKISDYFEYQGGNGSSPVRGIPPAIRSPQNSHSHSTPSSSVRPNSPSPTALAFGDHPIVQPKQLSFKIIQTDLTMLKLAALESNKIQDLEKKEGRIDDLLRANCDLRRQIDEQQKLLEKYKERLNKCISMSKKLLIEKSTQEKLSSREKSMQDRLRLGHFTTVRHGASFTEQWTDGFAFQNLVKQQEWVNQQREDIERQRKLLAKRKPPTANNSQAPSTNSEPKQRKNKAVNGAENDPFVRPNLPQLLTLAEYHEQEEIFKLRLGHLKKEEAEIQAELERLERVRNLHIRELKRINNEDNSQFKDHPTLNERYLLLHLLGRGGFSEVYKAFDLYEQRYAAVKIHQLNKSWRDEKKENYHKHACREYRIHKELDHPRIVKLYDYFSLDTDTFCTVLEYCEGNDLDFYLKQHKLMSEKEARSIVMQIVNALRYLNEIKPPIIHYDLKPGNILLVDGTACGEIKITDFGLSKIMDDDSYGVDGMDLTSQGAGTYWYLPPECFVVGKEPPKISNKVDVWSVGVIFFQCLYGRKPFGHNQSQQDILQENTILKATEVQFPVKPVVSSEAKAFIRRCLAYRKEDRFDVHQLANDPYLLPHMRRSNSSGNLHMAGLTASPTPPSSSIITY

[5] = biological target: T2, Dual serine/threonine and tyrosine protein kinase (Homo sapiens) (UniProt Q6XUX3); test: Inhibition of human RIPK5 assessed as enzyme activity at 30 uM using MBP as substrate by [gamma-33P]-ATP assay relative to control; set-up: scale not given: the % may be the effect or the level left
T2 sequence (whole entry): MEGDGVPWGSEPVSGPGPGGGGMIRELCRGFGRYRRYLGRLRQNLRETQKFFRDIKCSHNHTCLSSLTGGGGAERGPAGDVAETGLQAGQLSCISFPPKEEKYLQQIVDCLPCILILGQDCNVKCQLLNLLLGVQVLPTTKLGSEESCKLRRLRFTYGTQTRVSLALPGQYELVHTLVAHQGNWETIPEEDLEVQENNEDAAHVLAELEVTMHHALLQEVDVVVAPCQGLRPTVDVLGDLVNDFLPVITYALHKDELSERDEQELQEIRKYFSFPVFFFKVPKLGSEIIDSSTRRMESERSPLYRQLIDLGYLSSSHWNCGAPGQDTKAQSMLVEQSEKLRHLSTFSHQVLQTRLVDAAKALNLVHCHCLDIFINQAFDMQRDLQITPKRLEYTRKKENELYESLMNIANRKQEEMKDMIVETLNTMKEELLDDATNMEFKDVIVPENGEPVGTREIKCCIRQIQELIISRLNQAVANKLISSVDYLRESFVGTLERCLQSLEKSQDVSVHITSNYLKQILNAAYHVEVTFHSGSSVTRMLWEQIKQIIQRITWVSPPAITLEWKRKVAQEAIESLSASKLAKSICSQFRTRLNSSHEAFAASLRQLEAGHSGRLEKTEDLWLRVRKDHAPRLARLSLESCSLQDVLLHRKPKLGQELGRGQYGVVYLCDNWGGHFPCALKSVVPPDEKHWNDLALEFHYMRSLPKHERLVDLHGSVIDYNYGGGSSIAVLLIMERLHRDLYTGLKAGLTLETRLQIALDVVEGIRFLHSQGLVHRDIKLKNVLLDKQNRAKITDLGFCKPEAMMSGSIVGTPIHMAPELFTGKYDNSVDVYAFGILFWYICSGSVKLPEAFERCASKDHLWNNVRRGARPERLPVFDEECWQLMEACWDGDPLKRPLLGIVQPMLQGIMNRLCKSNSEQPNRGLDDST

[6] = biological target: T3, NUAK family SNF1-like kinase 1 (Homo sapiens) (UniProt O60285); test: Inhibition of human ARK5 assessed as enzyme activity at 30 uM using KKKVSRSGLYRSPSMPENLNRPR as substrate by [gamma-33P]-ATP assay relative to control; set-up: scale not given: the % may be the effect or the level left
T3 sequence (whole entry): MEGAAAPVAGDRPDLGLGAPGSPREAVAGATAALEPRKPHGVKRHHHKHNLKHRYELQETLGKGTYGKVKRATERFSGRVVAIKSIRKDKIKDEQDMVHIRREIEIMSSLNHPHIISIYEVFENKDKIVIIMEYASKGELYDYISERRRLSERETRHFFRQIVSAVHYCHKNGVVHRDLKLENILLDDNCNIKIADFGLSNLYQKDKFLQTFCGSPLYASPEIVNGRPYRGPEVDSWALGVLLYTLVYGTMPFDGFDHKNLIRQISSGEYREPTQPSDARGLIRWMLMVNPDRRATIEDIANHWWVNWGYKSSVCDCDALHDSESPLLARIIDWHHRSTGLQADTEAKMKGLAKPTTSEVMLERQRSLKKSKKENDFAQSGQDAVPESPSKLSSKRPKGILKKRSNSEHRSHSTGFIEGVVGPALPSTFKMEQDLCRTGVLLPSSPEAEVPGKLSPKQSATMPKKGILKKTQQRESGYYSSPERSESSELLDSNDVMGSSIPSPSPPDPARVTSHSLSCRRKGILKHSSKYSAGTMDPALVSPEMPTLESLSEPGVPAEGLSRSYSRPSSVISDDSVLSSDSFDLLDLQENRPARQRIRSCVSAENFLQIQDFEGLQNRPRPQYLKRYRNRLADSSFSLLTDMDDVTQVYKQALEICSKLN

[7] = biological target: Protein kinase C beta type (Homo sapiens) (UniProt P05771); test: Inhibition of human PKCb2 assessed as enzyme activity at 30 uM using Histone H1 as substrate by [gamma-33P]-ATP assay relative to control; set-up: scale not given: the % may be the effect or the level left
Mus musculus = test: Effect on total entries in ICR mouse model of scopolamine-induced memory impairment at 5 mg/kg by Y-maze test; type: ADME, organism-based; details: in vivo

Sequence of Cyclin-dependent kinase 1/cyclin B1 (Homo sapiens) (P06493 whole entry, looked up): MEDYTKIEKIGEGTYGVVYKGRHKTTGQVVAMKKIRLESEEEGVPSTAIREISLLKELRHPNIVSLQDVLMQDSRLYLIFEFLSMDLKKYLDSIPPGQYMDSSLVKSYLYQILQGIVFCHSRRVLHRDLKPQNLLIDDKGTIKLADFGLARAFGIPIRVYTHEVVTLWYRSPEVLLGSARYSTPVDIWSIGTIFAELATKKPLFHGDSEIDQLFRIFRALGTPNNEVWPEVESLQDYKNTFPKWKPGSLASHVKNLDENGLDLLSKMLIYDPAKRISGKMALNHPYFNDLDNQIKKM
Sequence of Cyclin-dependent kinase 1/cyclin B1 (Homo sapiens) (P14635 whole entry, looked up): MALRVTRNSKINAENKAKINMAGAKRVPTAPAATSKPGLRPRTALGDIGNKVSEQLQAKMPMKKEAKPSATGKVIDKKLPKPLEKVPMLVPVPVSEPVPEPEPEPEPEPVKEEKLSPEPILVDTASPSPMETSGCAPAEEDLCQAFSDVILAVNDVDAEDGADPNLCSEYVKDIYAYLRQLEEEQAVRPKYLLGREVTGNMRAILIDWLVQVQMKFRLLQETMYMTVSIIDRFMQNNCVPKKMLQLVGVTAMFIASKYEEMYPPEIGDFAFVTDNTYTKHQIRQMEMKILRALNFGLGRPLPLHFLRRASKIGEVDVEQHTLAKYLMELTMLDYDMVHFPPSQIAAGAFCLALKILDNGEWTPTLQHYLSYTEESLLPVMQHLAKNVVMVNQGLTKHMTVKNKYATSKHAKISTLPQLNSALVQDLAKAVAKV
Sequence of Death-associated protein kinase 1 (Homo sapiens) (P53355 whole entry, looked up): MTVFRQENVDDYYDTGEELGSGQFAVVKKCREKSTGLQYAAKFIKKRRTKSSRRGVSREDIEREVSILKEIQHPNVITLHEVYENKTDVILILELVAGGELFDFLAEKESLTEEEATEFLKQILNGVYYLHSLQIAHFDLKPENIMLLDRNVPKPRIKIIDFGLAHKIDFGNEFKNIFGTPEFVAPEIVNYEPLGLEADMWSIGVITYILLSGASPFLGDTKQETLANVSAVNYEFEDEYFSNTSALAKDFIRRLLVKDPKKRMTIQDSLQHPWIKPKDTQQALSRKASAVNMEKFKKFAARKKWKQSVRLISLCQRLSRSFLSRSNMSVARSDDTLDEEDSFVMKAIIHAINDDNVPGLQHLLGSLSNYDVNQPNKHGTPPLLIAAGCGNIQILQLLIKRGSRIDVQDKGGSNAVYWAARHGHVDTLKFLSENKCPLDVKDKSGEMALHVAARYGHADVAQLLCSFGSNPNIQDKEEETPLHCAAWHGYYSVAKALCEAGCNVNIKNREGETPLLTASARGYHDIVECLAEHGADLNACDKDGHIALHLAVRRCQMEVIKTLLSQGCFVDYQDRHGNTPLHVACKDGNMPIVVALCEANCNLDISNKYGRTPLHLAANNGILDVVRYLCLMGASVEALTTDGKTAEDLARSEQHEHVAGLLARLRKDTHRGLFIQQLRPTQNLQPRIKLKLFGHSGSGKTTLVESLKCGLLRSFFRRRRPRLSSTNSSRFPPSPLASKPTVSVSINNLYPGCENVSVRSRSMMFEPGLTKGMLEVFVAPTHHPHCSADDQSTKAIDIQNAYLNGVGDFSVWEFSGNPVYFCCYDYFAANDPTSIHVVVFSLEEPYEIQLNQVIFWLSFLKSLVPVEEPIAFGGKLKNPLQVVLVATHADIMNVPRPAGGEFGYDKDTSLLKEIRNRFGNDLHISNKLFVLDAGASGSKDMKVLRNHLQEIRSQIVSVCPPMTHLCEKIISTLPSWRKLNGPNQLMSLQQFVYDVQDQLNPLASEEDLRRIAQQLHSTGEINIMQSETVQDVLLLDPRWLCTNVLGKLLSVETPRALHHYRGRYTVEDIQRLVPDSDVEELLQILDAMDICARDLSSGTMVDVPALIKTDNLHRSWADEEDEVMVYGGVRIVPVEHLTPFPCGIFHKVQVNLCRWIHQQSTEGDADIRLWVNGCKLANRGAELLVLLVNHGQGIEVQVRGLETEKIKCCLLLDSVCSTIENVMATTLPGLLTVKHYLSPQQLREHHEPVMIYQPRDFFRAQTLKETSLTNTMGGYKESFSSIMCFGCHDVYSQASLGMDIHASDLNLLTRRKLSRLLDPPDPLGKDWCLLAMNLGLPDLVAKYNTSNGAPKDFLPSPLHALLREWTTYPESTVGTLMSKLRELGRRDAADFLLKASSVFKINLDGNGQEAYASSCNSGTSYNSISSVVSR
Sequence of Protein kinase C beta type (Homo sapiens) (P05771 2-671 limits assumed): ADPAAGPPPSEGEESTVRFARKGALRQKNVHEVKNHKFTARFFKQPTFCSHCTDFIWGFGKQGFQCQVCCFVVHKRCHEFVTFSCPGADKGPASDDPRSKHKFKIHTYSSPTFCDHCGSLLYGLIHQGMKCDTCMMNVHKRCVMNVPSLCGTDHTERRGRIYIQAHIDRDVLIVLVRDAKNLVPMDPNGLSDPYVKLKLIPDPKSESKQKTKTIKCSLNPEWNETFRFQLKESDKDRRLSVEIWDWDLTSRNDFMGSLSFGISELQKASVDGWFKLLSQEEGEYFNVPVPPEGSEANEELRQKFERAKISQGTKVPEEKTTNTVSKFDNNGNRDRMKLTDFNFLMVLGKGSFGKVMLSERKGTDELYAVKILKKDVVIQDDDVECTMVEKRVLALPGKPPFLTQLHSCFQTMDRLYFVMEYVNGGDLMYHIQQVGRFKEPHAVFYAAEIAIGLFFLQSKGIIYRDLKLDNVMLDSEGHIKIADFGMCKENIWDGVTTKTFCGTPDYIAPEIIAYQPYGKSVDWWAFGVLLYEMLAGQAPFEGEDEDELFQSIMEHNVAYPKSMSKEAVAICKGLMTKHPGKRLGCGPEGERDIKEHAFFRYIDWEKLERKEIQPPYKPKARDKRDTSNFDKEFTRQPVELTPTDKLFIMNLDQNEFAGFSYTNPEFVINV

SMILES: O=C1C=CC2(C=C1)OCC(Cc1cc(C(F)(F)F)cc(C(F)(F)F)c1)C(=O)N2c1ccccc1 (centres undefined)
- IC50 (BV-2): 0.07 µM
- viability at 24 h [1]: 92.1%
- Activity [2]: 45.3 to 45.4%
- Activity [3]: 45.4 to 46.5%
- Activity [4]: 57.3 to 58.6%
- Activity [5]: 58.6 to 59.9%
- Activity [6]: 70.7 to 70.8%
- Activity [7]: 67.7 to 71.2%
- Activity (Mus musculus): Non-Toxic
